In ChEMBL document CHEMBL4616641, “4-Hydroxy-3-methylbenzofuran-2-carbohydrazones as novel LSD1 inhibitors” (Bioorg Med Chem Lett, 2020):

Assays:
PC-3 = test: Antiproliferative activity against human PC3 cells assessed as inhibition of cell growth
MGC-803 = test: Antiproliferative activity against human MGC803 cells assessed as inhibition of cell growth by MTT assay
MCF7 = test: Antiproliferative activity against human MCF7 cells assessed as inhibition of cell growth
U-87 MG = test: Antiproliferative activity against human U87MG cells assessed as inhibition of cell growth
PANC-1 = test: Antiproliferative activity against human PANC1 cells assessed as inhibition of cell growth
HT-29 = test: Antiproliferative activity against human HT-29 cells assessed as inhibition of cell growth

IC50 (PC-3) [µM] | IC50 (MGC-803) [µM] | SMILES | other results
17.1 | – | Cc1c(C(=O)N/N=C\c2cc([N+](=O)[O-])ccc2O)oc2cccc(O)c12 | –
8.35 | 10.6 | Cc1c(C(=O)N/N=C\c2ccccc2O)oc2cccc(O)c12 | –
22.3 | – | Cc1c(C(=O)N/N=C\c2cccs2)oc2cccc(O)c12 | –
2.05 | 5.46 | Cc1c(C(=O)N/N=C\c2ccc(Br)cc2O)oc2cccc(O)c12 | –
17.6 | – | Cc1c(C(=O)N/N=C\c2cccc(O)c2)oc2cccc(O)c12 | –
≥ 40 | – | Cc1c(C(=O)N/N=C\c2cccc(F)c2)oc2cccc(O)c12 | –
3.17 | 5.23 | Cc1c(C(=O)N/N=C\c2cc(F)ccc2O)oc2cccc(O)c12 | –
18.7 | – | Cc1c(C(=O)N/N=C\c2c(O)cccc2Cl)oc2cccc(O)c12 | –
≥ 40 | – | Cc1c(C(=O)N/N=C\c2ccncc2)oc2cccc(O)c12 | –
32.7 | – | COc1ccccc1/C=N\NC(=O)c1oc2cccc(O)c2c1C | –
≥ 40 | – | Cc1c(C(=O)N/N=C\c2ccco2)oc2cccc(O)c12 | –
≥ 40 | – | Cc1c(C(=O)N/N=C\c2ccccc2F)oc2cccc(O)c12 | –
≥ 40 | – | COc1cccc(/C=N\NC(=O)c2oc3cccc(O)c3c2C)c1 | –
≥ 40 | 18.1 | Cc1c(C(=O)N/N=C\c2ccc(O)c(O)c2O)oc2cccc(O)c12 | IC50 (MCF7): 17.1 µM; IC50 (U-87 MG): 5.96 µM; IC50 (PANC-1): > 20 µM; IC50 (HT-29): > 20 µM
16.6 | 14.2 | Cc1c(C(=O)N/N=C\c2cccc(Br)c2O)oc2cccc(O)c12 | –
3.12 | 4.16 | Cc1c(C(=O)N/N=C\c2cc(Cl)ccc2O)oc2cccc(O)c12 | –
12.7 | 8.35 | Cc1c(C(=O)N/N=C\c2cccc(F)c2O)oc2cccc(O)c12 | –
21.7 | – | Cc1c(C(=O)N/N=C\c2ccc(O)cc2)oc2cccc(O)c12 | –
≥ 40 | – | Cc1c(C(=O)N/N=C\c2cccnc2)oc2cccc(O)c12 | –
≥ 40 | – | Cc1c(C(=O)N/N=C\c2ccccn2)oc2cccc(O)c12 | –
≥ 40 | – | Cc1c(C(=O)N/N=C\c2ccc(F)cc2)oc2cccc(O)c12 | –
7.35 | 5.99 | Cc1ccc(O)c(/C=N\NC(=O)c2oc3cccc(O)c3c2C)c1 | –
8.05 | 10.8 | Cc1c(C(=O)N/N=C\c2c(O)cccc2F)oc2cccc(O)c12 | IC50 (MCF7): 1.75 µM; IC50 (U-87 MG): 9.27 µM; IC50 (PANC-1): 8.23 µM; IC50 (HT-29): 2.2 µM
≥ 40 | – | Cc1c(C(=O)N/N=C\c2ccc(C(F)(F)F)cc2)oc2cccc(O)c12 | –
14.8 | 7.33 | Cc1c(C(=O)N/N=C\c2ccc(O)cc2O)oc2cccc(O)c12 | IC50 (MCF7): 2.08 µM; IC50 (U-87 MG): 4.39 µM; IC50 (PANC-1): 9.77 µM; IC50 (HT-29): 2.88 µM
9.59 | 4.36 | Cc1c(C(=O)N/N=C\c2cc(Cl)cc(Cl)c2O)oc2cccc(O)c12 | –
95.5 | – | Cc1c(C(=O)N/N=C\c2cc(O)ccc2O)oc2cccc(O)c12 | –
12.2 | 5.03 | Cc1c(C(=O)N/N=C\c2cccc(O)c2O)oc2cccc(O)c12 | –
26.2 | – | Cc1c(C(=O)N/N=C\c2ccccc2C(F)(F)F)oc2cccc(O)c12 | –
29.2 | – | Cc1c(C(=O)N/N=C\c2ccccc2)oc2cccc(O)c12 | –
